Columns and labels:
CYP82A24 = target: T1, CYP82A24 (Glycine max, UniProt I1MI36); test: HPLC of glyceollin III formation, recombinant yeast microsomes; type: biochemical; details: NADPH; potassium phosphate pH 7.5; 30°C
T1 construct: gene LOC100782866; synthetic gene in pYES2 (BamHI site); recombinant yeast BJ2168 microsomes with Lotus japonicus CPR
T1 sequence (I1MI36 1-521): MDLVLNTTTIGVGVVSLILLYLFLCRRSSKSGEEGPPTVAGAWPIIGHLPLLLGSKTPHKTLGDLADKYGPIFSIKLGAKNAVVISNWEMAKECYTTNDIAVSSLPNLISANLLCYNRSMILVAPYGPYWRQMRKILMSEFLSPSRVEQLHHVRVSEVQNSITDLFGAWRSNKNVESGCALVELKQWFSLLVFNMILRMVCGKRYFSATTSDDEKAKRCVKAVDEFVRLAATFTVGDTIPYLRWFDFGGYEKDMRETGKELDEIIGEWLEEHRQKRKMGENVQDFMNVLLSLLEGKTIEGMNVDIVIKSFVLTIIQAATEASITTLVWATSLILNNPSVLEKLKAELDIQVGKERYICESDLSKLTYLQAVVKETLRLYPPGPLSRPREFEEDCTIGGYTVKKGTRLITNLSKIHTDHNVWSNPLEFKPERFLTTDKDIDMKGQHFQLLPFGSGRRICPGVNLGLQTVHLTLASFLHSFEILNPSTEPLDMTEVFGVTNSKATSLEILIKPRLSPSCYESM

CYP71D145 = target: T2, CYP71D145 (Glycine max, UniProt A0A0R0HDK6); test: HPLC of glyceollin I formation, recombinant yeast microsomes; type: biochemical; details: NADPH; potassium phosphate pH 7.5; 30°C, 5 h
T2 construct: gene GLYMA_11G062500; full ORF in pYES2.1 TOPO; recombinant yeast BJ2168 microsomes with Lotus japonicus CPR
T2 sequence (A0A0R0HDK6 1-505): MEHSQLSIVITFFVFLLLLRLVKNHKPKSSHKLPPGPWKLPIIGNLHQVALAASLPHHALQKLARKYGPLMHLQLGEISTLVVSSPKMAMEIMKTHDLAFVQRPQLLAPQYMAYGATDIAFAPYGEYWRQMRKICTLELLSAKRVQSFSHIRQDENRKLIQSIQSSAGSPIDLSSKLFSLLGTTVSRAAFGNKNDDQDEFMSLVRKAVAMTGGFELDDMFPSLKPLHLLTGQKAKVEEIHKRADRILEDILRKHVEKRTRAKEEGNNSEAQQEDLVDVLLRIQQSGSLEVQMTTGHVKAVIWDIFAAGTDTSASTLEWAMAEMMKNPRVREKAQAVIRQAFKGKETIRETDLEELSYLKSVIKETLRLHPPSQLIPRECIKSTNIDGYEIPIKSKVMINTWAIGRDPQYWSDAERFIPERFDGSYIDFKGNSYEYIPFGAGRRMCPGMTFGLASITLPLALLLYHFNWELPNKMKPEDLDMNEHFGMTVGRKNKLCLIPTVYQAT

CYP71D106 = target: T3, CYP71D106 (Glycine max, UniProt K7K4H7); test: as above; type: biochemical; details: NADPH; potassium phosphate pH 7.5; 30°C, 5 h
T3 construct: gene LOC100817439; synthetic gene in pYES2 (BamHI site); recombinant yeast BJ2168 microsomes with Lotus japonicus CPR
T3 sequence (K7K4H7 1-503): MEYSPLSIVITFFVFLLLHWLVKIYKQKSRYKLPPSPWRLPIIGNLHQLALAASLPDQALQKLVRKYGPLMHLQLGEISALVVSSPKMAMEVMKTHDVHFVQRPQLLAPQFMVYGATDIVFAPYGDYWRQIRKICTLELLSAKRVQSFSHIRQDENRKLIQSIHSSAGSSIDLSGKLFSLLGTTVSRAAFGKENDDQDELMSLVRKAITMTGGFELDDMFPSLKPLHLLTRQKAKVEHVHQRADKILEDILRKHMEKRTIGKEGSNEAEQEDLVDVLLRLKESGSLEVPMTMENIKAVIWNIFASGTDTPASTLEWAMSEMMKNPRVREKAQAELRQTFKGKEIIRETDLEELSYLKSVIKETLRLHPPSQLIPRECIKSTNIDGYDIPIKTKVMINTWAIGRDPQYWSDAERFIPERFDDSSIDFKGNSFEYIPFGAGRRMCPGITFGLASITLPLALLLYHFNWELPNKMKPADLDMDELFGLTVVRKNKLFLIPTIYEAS

[1] = substrate: CC(C)=CCc1c(O)ccc2c1OC[C@@]1(O)c3ccc(O)cc3O[C@@H]21; test: HPLC of glyceollin I formation, recombinant yeast microsomes, Michaelis-Menten fit; type: biochemical, Glycine max; details: 2 mM NADPH, 0.1 M potassium phosphate pH 7.5, 10% sucrose, 14 mM 2-mercaptoethanol, 30°C, 20 min
[2] = substrate: CC(C)=CCc1cc2c(cc1O)OC[C@@]1(O)c3ccc(O)cc3O[C@@H]21; test: HPLC of glyceollin III formation, recombinant yeast microsomes, Michaelis-Menten fit; type: biochemical, Glycine max; details: 2 mM NADPH, 0.1 M potassium phosphate pH 7.5, 10% sucrose, 14 mM 2-mercaptoethanol, 30°C, 20 min

CC(C)=CCc1cc2c(cc1O)OC[C@@]1(O)c3ccc(O)cc3O[C@@H]21 [2DG, 2-dimethylallylglycinol]
HPLC of glyceollin III formation, recombinant yeast microsomes (CYP82A24): CYP82A24 also exhibited GS3 activity with 2-dimethylallylglycinol

CC(C)=CCc1c(O)ccc2c1OC[C@@]1(O)c3ccc(O)cc3O[C@@H]21 [4DG, 4-dimethylallylglycinol]
HPLC of glyceollin I formation, recombinant yeast microsomes (CYP71D145): CYP71D145 produced only glyceollin I in the enzyme assay
HPLC of glyceollin I formation, recombinant yeast microsomes (CYP71D106): CYP71D106 yielded glyceollin I and two other unknown compounds (P1 and P2)

B1: CYP71D8 (GS1, glyceollin I synthase) (Glycine max) (protein)
chain: MEYSPLSIVITFFVFLLLHWLVKTYKQKSSHKLPPGPWRLPIIGNLHQLALAASLPDQALQKLVRKYGPLMHLQLGEISTLVVSSPKMAMEMMKTHDVHFVQRPQLLAPQFMVYGATDIAFAPYGDYWRQIRKICTLELLSAKRVQSFSHIRQDENKKLIQSIHSSAGSPIDLSGKLFSLLGTTVSRAAFGKENDDQDEFMSLVRKAITMTGGFEVDDMFPSLKPLHLLTRQKAKVEHVHQRADKILEDILRKHMEKRTRVKEGNGSEAEQEDLVDVLLRLKESGSLEVPMTMENIKAVIWNIFAAGTDTSASTLEWAMSEMMKNPKVKEKAQAELRQIFKGKEIIRETDLEELSYLKSVIKETLRLHPPSQLIPRECIISTNIDGYEIPIKTKVMINTWAIGRDPQYWSDADRFIPERFNDSSIDFKGNSFEYIPFGAGRRMCPGMTFGLASITLPLALLLYHFNWELPNKMKPEDLDMDEHFGMTVARKNKLFLIPTVYEAS
notes: full ORF in pYES2.1 TOPO; yeast BJ2168 microsomes co-expressing Lotus japonicus CPR
Km [1]: 1.3 ± 0.2 µM

B2: CYP82A2 (GS3, glyceollin III synthase) (Glycine max) (protein)
chain: MELVLNSTTIGVGVVSLILLLYLFLRGGSWKSGEEGPPTVAGAWPIIGHLPLLLGSKTPHKTLGDLADKYGPIFSIKIGAKNAVVVSNWEMAKECYTTNDIAVSSLPDLISANLLCYNRSMIVVAPYGPYWRQLRKILMSEFLSPSRVEQLHHVRVSEVQSSITELFRDWRSNKNVQSGFATVELKQWFSLLVFNMILRMVCGKRYFSASTSDDEKANRCVKAVDEFVRLAATFTVGDAIPYLRWFDFGGYENDMRETGKELDEIIGEWLDEHRQKRKMGENVQDLMSVLLSLLEGKTIEGMNVDIVIKSFVLTVIQAGTEASITTLIWATSLILNNPSVLEKLKAELDIQVGKERYICESDLSKLTYLQAVVKETLRLYPPAPLSRPREFEEDCTIGGYTVKKGTRLITNLSKIHTDHNVWSNPLEFKPERFLTTDKDIDMKGQHFQLLPFGGGRRICPGINLGLQTVRLTLASFLHSFEILNPSTEPLDMTEVFRATNTKATPLEILIKPRLSPSCYESI
notes: as for B1
Km [2]: 9.5 ± 1.0 µM
